Measurements from patent US10077288B2, “Hydroxystatin derivatives for the treatment of arthrosis” (Merck Patent GmbH, priority 2012, dated 2018).

Target: T1, cathepsin D isolated from the human liver (Homo sapiens, UniProt P07339)
T1 construct: cathepsin D isolated from the human liver (Sigma-Aldrich); purchased Sigma-Aldrich; host or cells: human liver (tissue-derived, not recombinant)
Test: In-vitro fluorescence assay for identification of cathepsin D inhibitors
Assay type: biochemical
Conditions: human liver cathepsin D 1.4 nM, pH 5.5; read-out: CatD assay IC50-(M)
Experimental: EXAMPLE 4: IN-VITRO FLUORESCENCE ASSAY FOR IDENTIFICATION OF CATHEPSIN D INHIBITORS
In order to identify modulators of cathepsin D activity, a continuous enzymatic test was carried out with a synthetic peptide which carries a fluorescent group (MCA=(7-methoxycoumarin-4-yl)acetyl) which is quenched by energy transfer from a Dpn (2,4 dinitrophenyl) group on the same molecule, in Greiner 384-well nb microtitre plates. Cleavage of the peptidic substrate by cathepsin D causes an increase in the fluorescence intensity. In order to determine the efficacy of substances, the time-dependent increase in the fluorescence intensity in the presence of the substance was compared with the time-dependent increase in fluorescence in the absence of substances. The reference substance used was pepstatin A (Sigma-Aldrich). The substrate used was MCA-GKPILFFRLK(Dnp)d-R—NH2 (Enzo Life Sciences, Lörrach). The enzyme employed was cathepsin D isolated from the human liver (Sigma-Aldrich) in a final concentration of 1.4 nM. The test was carried out in 100 mM sodium acetate buffer, 1.25% (v/v) of DMSO, 0.25% (w/v) of Chaps, pH 5.5. 2 μl of each substance solution with serially diluted substance concentration were added to in each case 4 μl of cathepsin D solution and incubated at room temperature for 10 min. The reaction was started by addition of 2 μl of substrate solution (final concentration 5 μM). After carrying out a starting-point fluorescence measurement (excitation wavelength 340 nm/emission wavelength 450 nm) using an Envision multilabel reader (Perkin Elmer), the reaction was incubated at room temperature for 60 min. The amount of peptide fragment cleaved off during the reaction time was subsequently measured by determination of the increase in the fluorescence intensity at 450 nm (excitation wavelength 340 nm).

T1 sequence (P07339 65-161 limits assumed): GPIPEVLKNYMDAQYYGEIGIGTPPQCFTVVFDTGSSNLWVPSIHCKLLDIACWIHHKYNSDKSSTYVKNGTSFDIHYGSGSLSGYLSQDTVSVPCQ
T1 sequence (P07339 169-412 limits assumed): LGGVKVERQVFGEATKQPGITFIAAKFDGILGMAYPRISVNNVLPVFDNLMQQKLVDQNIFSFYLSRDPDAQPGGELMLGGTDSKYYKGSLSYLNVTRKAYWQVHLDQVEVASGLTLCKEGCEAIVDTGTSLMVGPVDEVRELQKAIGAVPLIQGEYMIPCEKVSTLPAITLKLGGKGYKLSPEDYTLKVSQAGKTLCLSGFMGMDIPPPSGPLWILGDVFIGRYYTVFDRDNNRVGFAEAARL

Work on `CC[C@H](C)[C@H](NC(=O)C[C@H](O)[C@H](Cc1ccccc1)NC(=O)[C@@H](NC(=O)CCCc1ccccc1)C(C)C)C(=O)N[C@H](C(=O)OCc1ccccc1)C(C)C` [Compound 2, benzly (S)-2-((2S,3S)-2-{(3S,4S)-3-hydroxy-4-[(S)-3-methyl-2-(4-phenylbutyrylamino)butyrylamino]-5-phenylpentanoylamino}-3-methylpentanoylamino)-3-methylbutyrate] yielded an IC50 of 7.1e-08 M.
`CC[C@H](C)[C@H](NC(=O)C[C@H](O)[C@H](Cc1ccccc1)NC(=O)[C@@H](NC(=O)C(C)(C)Oc1ccc2ccccc2c1)C(C)C)C(=O)N[C@H](C(=O)O)C(C)C` [Compound 6, (S)-2-[(2S,3S)-2-((3S,4S)-3-hydroxy-4-{(S)-3-methyl-2-[2-methyl-2-(naphthalen-2-yloxy)propionylamino]butyrylamino}-5-phenylpentanoylamino)-3-methylpentanoylamino]-3-methylbutyric acid] showed an IC50 of 2.3e-07 M.
Work on `CC[C@H](C)[C@H](NC(=O)C[C@H](O)[C@H](Cc1ccccc1)NC(=O)[C@@H](NC(=O)COc1ccc2ccccc2c1)C(C)C)C(=O)N[C@H](C(=O)OCc1ccccc1)C(C)C` [Compound 7] yielded an IC50 of 3.5e-07 M.
`CC[C@H](C)[C@H](NC(=O)C[C@H](O)[C@H](Cc1ccccc1)NC(=O)[C@@H](NC(=O)Cc1ccc(OC)c(OC)c1)C(C)C)C(=O)N[C@H](C(=O)OCc1ccccc1)C(C)C` [Compound 10, benzly (S)-2-[(2S,3S)-2-((3S,4S)-4-{(S)-2-[2-(3,4-dimethoxyphenyl)-acetylamino]-3-methylbutyrylamino}-3-hydroxy-5-phenylpentanoylamino)-3-methylpentanoylamino]-3-methylbutyrate] was tested, and the IC50 was 2.9e-08 M.
In the case of `CC[C@H](C)[C@H](NC(=O)C[C@H](O)[C@H](Cc1ccccc1)NC(=O)[C@@H](NC(=O)Cc1ccc(OC)cc1)C(C)C)C(=O)N[C@H](C(=O)OCc1ccccc1)C(C)C` [Compound 11, benzly (S)-2-[(2S,3S)-2-((3S,4S)-3-hydroxy-4-{(S)-2-[2-(4-methoxy-phenyl)acetylamino]-3-methylbutyrylamino}-5-phenylpentanoylamino)-3-methylpentanoylamino]-3-methylbutyrate], the IC50 is reported as 9e-08 M.
`CCOc1cccc(CC(=O)N[C@H](C(=O)N[C@@H](Cc2ccccc2)[C@@H](O)CC(=O)N[C@H](C(=O)N[C@H](C(=O)OCc2ccccc2)C(C)C)[C@@H](C)CC)C(C)C)c1` [Compound 12, benzly (S)-2-[(2S,3S)-2-((3S,4S)-4-{(S)-2-[2-(3-ethoxyphenyl)-acetylamino]-3-methylbutyrylamino}-3-hydroxy-5-phenylpentanoylamino)-3-methylpentanoylamino]-3-methylbutyrate] gave an IC50 of 2.5e-08 M.
`CC[C@H](C)[C@H](NC(=O)C[C@H](O)[C@H](Cc1ccccc1)NC(=O)[C@@H](NC(=O)Cc1cccc(OC)c1)C(C)C)C(=O)N[C@H](C(=O)OCc1ccccc1)C(C)C` [Compound 13, benzly (S)-2-[(2S,3S)-2-((3S,4S)-3-hydroxy-4-{(S)-2-[2-(3-methoxy-phenyl)acetylamino]-3-methylbutyrylamino}-5-phenylpentanoylamino)-3-methylpentanoylamino]-3-methylbutyrate] gave an IC50 of 2.5e-08 M.
In the case of `CC[C@H](C)[C@H](NC(=O)C[C@H](O)[C@H](Cc1ccccc1)NC(=O)[C@@H](NC(=O)Cc1ccc(OC)c(OC)c1)C(C)C)C(=O)N[C@H](C(=O)O)C(C)C` [Compound 14, (S)-2-[(2S,3S)-2-((3S,4S)-4-{(S)-2-[2-(3,4-dimethoxyphenyl)acetylamino]-3-methylbutyrylamino}-3-hydroxy-5-phenylpentanoylamino)-3-methylpentanoylamino]-3-methylbutyric acid], the IC50 is reported as 1.5e-07 M.
Work on `CC[C@H](C)[C@H](NC(=O)C[C@H](O)[C@H](Cc1ccccc1)NC(=O)[C@@H](NC(=O)Cc1ccc2ccccc2c1)C(C)C)C(=O)N[C@H](C(=O)OCc1ccccc1)C(C)C` [Compound 16, benzly (S)-2-((2S,3S)-2-{(3S,4S)-3-hydroxy-4-[(S)-3-methyl-2-(2-naphthalen-2-ylacetylamino)butyrylamino]-5-phenylpentanoylamino}-3-methylpentanoylamino)-3-methylbutyrate] yielded an IC50 of 1.5e-07 M.
`CCOc1cccc(CC(=O)N[C@H](C(=O)N[C@@H](Cc2ccccc2)[C@@H](O)CC(=O)N[C@H](C(=O)N[C@H](C(=O)O)C(C)C)[C@@H](C)CC)C(C)C)c1` [Compound 17, (S)-2-[(2S,3S)-2-((3S,4S)-4-{(S)-2-[2-(3-ethoxyphenyl)acetylamino]-3-methylbutyrylamino}-3-hydroxy-5-phenylpentanoylamino)-3-methylpentanoylamino]-3-methylbutyric acid] showed an IC50 of 1.55e-08 M.
In the case of `CC[C@H](C)[C@H](NC(=O)C[C@H](O)[C@H](Cc1ccccc1)NC(=O)[C@@H](NC(=O)Cc1cc(OC(F)(F)F)ccc1OC)C(C)C)C(=O)N[C@H](C(=O)OCc1ccccc1)C(C)C` [Compound 18, benzly (S)-2-[(2S,3S)-2-((3S,4S)-3-hydroxy-4-{(S)-2-[2-(2-methoxy-5-trifluoromethoxyphenyl)acetylamino]-3-methylbutyrylamino}-5-phenylpentanoylamino)-3-methylpentanoylamino]-3-methylbutyrate], the IC50 is reported as 3.4e-08 M.
Work on `CC[C@H](C)[C@H](NC(=O)C[C@H](O)[C@H](Cc1ccccc1)NC(=O)[C@@H](NC(=O)Cc1cccc(Oc2ccccc2)c1)C(C)C)C(=O)N[C@H](C(=O)OCc1ccccc1)C(C)C` [Compound 19, benzly (S)-2-[(2S,3S)-2-((3S,4S)-3-hydroxy-4-{(S)-3-methyl-2-[2-(3-phenoxyphenyl)acetylamino]butyrylamino}-5-phenylpentanoylamino)-3-methylpentanoylamino]-3-methylbutyrate] yielded an IC50 of 4e-08 M.
Work on `CC[C@H](C)[C@H](NC(=O)C[C@H](O)[C@H](Cc1ccccc1)NC(=O)[C@@H](NC(=O)Cc1cccc2ccccc12)C(C)C)C(=O)N[C@H](C(=O)OCc1ccccc1)C(C)C` [Compound 21, benzly (S)-2-((2S,3S)-2-{(3S,4S)-3-hydroxy-4-[(S)-3-methyl-2-(2-naphthalen-1-ylacetylamino)butyrylamino]-5-phenylpentanoylamino}-3-methylpentanoylamino)-3-methylbutyrate] yielded an IC50 of 1.2e-06 M.
Molecule `CC[C@H](C)[C@H](NC(=O)C[C@H](O)[C@H](Cc1ccccc1)NC(=O)[C@@H](NC(=O)Cc1ccccc1OC)C(C)C)C(=O)N[C@H](C(=O)OCc1ccccc1)C(C)C` [Compound 22, benzly (S)-2-[(2S,3S)-2-((3S,4S)-3-hydroxy-4-{(S)-2-[2-(2-methoxy-phenyl)acetylamino]-3-methylbutyrylamino}-5-phenylpentanoylamino)-3-methylpentanoylamino]-3-methylbutyrate] has an IC50 of 2.1e-07 M.
With `CC[C@H](C)[C@H](NC(=O)C[C@H](O)[C@H](Cc1ccccc1)NC(=O)[C@@H](NC(=O)Cc1cc(OC(F)(F)F)ccc1OC)C(C)C)C(=O)N[C@H](C(=O)O)C(C)C` [Compound 24, (S)-2-[(2S,3S)-2-((3S,4S)-3-hydroxy-4-{(S)-2-[2-(2-methoxy-5-trifluoromethoxyphenyl)acetylamino]-3-methylbutyrylamino}-5-phenylpentanoylamino)-3-methylpentanoylamino]-3-methylbutyric acid] the IC50 was 1.1e-08 M.
`CC[C@H](C)[C@H](NC(=O)C[C@H](O)[C@H](Cc1ccccc1)NC(=O)[C@@H](NC(=O)Cc1ccc2ccccc2c1)C(C)C)C(=O)N[C@H](C(=O)O)C(C)C` [Compound 25, (S)-2-((2S,3S)-2-{(3S,4S)-3-hydroxy-4-[(S)-3-methyl-2-(2-naphthalen-2-ylacetylamino)butyrylamino]-5-phenylpentanoylamino}-3-methylpentanoylamino)-3-methylbutyric acid] was tested, and the IC50 was 8.1e-09 M.
In the case of `CC[C@H](C)[C@H](NC(=O)C[C@H](O)[C@H](Cc1ccccc1)NC(=O)[C@@H](NC(=O)c1cccc(OC(C)(C)C)c1)C(C)C)C(=O)N[C@H](C(=O)O)C(C)C` [Compound 26, (S)-2-((2S,3S)-2-{(3S,4S)-4-[(S)-2-(3-tert-butoxybenzoylamino)-3-methylbutyrylamino]-3-hydroxy-5-phenylpentanoylamino}-3-methylpentanoylamino)-3-methylbutyric acid], the IC50 is reported as 1.2e-07 M.
With `CC[C@H](C)[C@H](NC(=O)C[C@H](O)[C@H](Cc1ccccc1)NC(=O)[C@@H](NC(=O)Cc1cccc(Oc2ccccc2)c1)C(C)C)C(=O)N[C@H](C(=O)O)C(C)C` [Compound 27, (S)-2-[(2S,3S)-2-((3S,4S)-3-hydroxy-4-{(S)-3-methyl-2-[2-(3-phenoxyphenyl)acetylamino]butyrylamino}-5-phenylpentanoylamino)-3-methylpentanoylamino]-3-methylbutyric acid] the IC50 was 1.2e-08 M.
